Experimental data reported in BindingDB's records for doi:10.1021/jm001043t (Lawrence Berkeley National Laboratory, 2001).

Key:
[1] = biological target: Cyclin-dependent kinase 4/G1/S-specific cyclin-D1 (Homo sapiens, UniProt P11802); assay: CDK2/Cyclin E and CDK4/Cyclin D1 Kinase Assay; conditions: pH 7.5; 30 °C
Protocol: (§1) The enzyme was assayed with substrate GST-Rb in the presence of 10 uM ATP/[gamma-33P] ATP, and capturing the 33-P labeled reaction products on GSH-Sepharose beads. […] Use of 33P-labeled ATP allows this transfer to be monitored by scintillation counting.

[2] = biological target: Cyclin-dependent kinase 2/G1/S-specific cyclin-E1 (Homo sapiens, UniProt P24941); assay: CDK2/Cyclin E and CDK4/Cyclin D1 Kinase Assay; conditions: pH 7.5; 30 °C
Protocol: as §1

[3] = biological target: Cyclin-dependent kinase/G2/mitotic-specific cyclin- 1 (Homo sapiens, UniProt P06493); assay: CDK1/Cyclin B Kinase SPA Assay; conditions: pH 8; 30 °C
Protocol: The biochemical activity of compounds was determined by incubation with specific enzyme and substrate in the presence 0.5 uM ATP/ [gamma-33P] ATP. After incubation, the reaction was stopped and the phosphorylated substrate was separated from nonincorporated radioactive ATP using Streptavidin-coated SPA beads, counted using TopCount (Packard) to measure substrate-incorporated phosphate.

Sequence of Cyclin-dependent kinase/G2/mitotic-specific cyclin- 1 (P06493 whole entry): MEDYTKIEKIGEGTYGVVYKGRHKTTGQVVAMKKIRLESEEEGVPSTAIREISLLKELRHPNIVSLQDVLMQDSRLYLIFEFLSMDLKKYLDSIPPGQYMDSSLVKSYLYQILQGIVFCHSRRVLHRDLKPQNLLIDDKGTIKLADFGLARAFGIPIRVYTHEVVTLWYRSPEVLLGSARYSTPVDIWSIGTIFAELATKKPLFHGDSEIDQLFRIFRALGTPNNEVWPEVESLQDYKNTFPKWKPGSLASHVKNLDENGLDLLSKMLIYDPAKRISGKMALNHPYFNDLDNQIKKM
Sequence of Cyclin-dependent kinase/G2/mitotic-specific cyclin- 1 (P14635 whole entry, further chain): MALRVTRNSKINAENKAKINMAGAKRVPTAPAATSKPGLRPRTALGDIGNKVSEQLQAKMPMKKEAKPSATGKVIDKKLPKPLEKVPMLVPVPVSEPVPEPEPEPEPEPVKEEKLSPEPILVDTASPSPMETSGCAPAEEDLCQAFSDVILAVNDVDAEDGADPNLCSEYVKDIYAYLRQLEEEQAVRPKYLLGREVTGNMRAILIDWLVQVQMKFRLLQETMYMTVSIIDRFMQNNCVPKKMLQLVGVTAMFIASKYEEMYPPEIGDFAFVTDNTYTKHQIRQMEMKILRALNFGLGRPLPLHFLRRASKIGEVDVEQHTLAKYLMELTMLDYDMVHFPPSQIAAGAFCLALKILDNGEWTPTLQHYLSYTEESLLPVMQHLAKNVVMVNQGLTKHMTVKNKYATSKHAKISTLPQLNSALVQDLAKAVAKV
Sequence of Cyclin-dependent kinase 4/G1/S-specific cyclin-D1 (P11802 whole entry): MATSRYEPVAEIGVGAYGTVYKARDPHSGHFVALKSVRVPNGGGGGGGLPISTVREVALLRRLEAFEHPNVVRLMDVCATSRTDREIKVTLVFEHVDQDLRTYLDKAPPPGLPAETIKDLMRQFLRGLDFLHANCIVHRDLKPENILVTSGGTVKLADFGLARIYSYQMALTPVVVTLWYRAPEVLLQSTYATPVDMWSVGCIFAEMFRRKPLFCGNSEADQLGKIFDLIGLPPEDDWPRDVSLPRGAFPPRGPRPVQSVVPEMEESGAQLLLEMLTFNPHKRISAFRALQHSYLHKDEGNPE
Sequence of Cyclin-dependent kinase 4/G1/S-specific cyclin-D1 (P24385 whole entry, further chain): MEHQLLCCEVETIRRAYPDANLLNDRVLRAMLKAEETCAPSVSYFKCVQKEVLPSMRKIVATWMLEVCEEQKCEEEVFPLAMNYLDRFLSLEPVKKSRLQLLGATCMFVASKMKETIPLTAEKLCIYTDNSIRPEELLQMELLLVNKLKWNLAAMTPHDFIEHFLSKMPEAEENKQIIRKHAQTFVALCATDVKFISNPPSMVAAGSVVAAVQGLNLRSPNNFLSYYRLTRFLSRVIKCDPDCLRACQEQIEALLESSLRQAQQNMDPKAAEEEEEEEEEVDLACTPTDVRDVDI

`C[C@@H](Nc1nc(N[C@H]2CC[C@H](N)CC2)nc2c1ncn2C1CCCC1)c1ccccc1` [2,6,9-trisubstituted adenine derivative] showed an IC50 [1] of 8.8 µM, an IC50 [2] of 0.72 µM and an IC50 [3] of 2 µM.
